“Also recorded” adds a separate entry of the source. Like-named read-outs stand apart in the source and are kept apart here.

Consider one compound from patent US6288110A, “Pharmaceutical compositions comprising disulfiram” (Yeda Research and Development Co Ltd., priority 1998, dated 2001).

Data set [1] relates to C6 rat glioma cells. In words: DNA synthesis (3H-thymidine incorporation) in C6 rat glioma cells. It counts as cell-based. The settings on record: for IC (maximal): Rattus norvegicus. The procedure:
C6 rat glioma cells were routinely cultured in DMEM supplemented with 5% FCS (Biological Industries, Israel), GPS (100 U/ml penicillin, […] streptomycin (Biological Industries, Israel) and 2 mM glutamine (Biolab Ltd. Israel)) and 125 μg/ml fungizone (Biolab Ltd, Israel).
C6 rat glioma cells were plated in 96-well plates (Nunc, Denmark) (5000 cells per well) in DMEM with 5% FCS. After 6 hours the cells were rinsed and incubated for 48 hours in serum free medium. 5% FCS or growth factors were then added to the cells for 24 hours (triplicates). ^3 H-methyl-thymidine (5μCi/ml) (Rotem Ind. Ltd., Israel) was added to the cells for the last 14 hours. The cells were rinsed with 100 μl methanol for 10 minutes, followed by 200 μl 5% trichloroacetic acid, and then rinsed and lysed with 150 μl 0.3M NaOH. Radioactive thymidine incorporated into the DNA was determined for 1 min with 3 ml scintillation liquid (ULTIMA GOLD Packard) in a β-counter. DNA synthesis assays were performed in triplicates.
Disulfiram was prepared in 0.1 mM stock solutions in DMSO. Control samples were incubated with the appropriate concentration of DMSO. Inhibition was calculated as percentage of DNA synthesis of control.
To determine whether disulfiram acts directly on endothelial cells rather than on accessory cells such as macrophages and mast cells that can be responsible for the development of an angiogenic response in vivo, the effect of the drug on the growth of BCE cells was examined in vitro as described in section (c) of "Materials and Methods" above. DNA synthesis in BCE cells was measured in presence of increasing concentrations of disulfiram incubated for 24 hours with the cells. […] Maximal inhibitory activity (80%) for BSMC was at 0.5-1 μM disulfiram, while maximal inhibitory activity for C6 glioma cells or BALB/MK keratinocytes was at concentrations 10 fold higher (2-3 μM) than those for endothelial cells (0.2-0.5 μM).
To examine the time course of the effect of disulfiram and whether the effect was reversible, cells were incubated with disulfiram for various periods of time (1, 2, 4 and 24 hours), then washed away and DNA synthesis was determined. One to 4 hours of exposure to disulfiram were enough to induce maximal inhibitory effect at concentrations ranging from 0.5 μM for BCE cells (FIG. 3A) to 5 μM for BALB/MK keratinocytes (FIG. 3C) and C6 glioma cells (FIG. 3D). […] BSMC were less sensitive as far as time course is concerned when incubated with 1 μM disulfiram. Following 4 hours of incubation with 1 μM disulfiram, DNA synthesis inhibition in BSMC reached only 50% (FIG. 3B). […]
On the technique in general: Uptake of a labelled nucleoside into DNA is a usual measure of proliferation.

The test system of data set [2] is BCE cells. In words: Apoptosis by FACS (DNA content) in BCE cells. The data set is classed as cell-based, bovine. Particulars: 0.5-5 μM, 20 hours. How it is done: Cells were cultured in plastic tissue culture dishes for 48 hours in presence of growth media as described above, until reaching 40-50% confluency. Disulfiram was then added to the cells for 20 hours. The cells were removed from the plates by EDTA-trypsin and fixed in ice-cold 70% ethanol (BioLab, Israel) in -20° C. for 2 hr to overnight. The fixed cells (2-5×10^6) were washed once with HEPES-buffered saline (HBSS) and incubated with 0.5 mg/ml RNAseH (Boehringer Mannheim). Afterwards the cells were resuspended in HBSS containing 50 μg/ml propidium iodide (Sigma) and subsequently analyzed on a FACSort flow cytometer (Beckton Dickinson Inc.) using Lysis II software. For the analysis, 10,000 cells were examined from each sample. The percentage of the hypodiploid cells was measured (Darzynkiewicz, 1992; Afanasyev, 1993). The cell cycle histogram was divided into four regions according to the cell cycle phases: Ap, apoptotic cells; G1, diploid cells; S, intermediate cells; and G2 /M, tetraploid cells.
Capillary endothelial cells were grown during 48 hours to 40-50% confluency and disulfiram was then added to the cells for 20 hours as described in section (g) of "Materials and Methods" above. […] The abundance of apoptotic cells was dose-dependent.

The test system of data set [3] is Lewis lung carcinoma (D122) metastasis in the lungs. Nature of the data set: Lewis lung carcinoma metastasis, footpad model. It counts as in vivo, C57/BL mice. The text has this: The Lewis lung carcinoma (3LL), which originated spontaneously in a C57/BL/6J (H-2^b) mouse, is a malignant tumor that produces spontaneous lung metastases. The metastatic clone D122, kindly provided by Prof. Lea Eisenbach (Weizmann Institute of Science, Rehovot, Israel), was used herein for tissue culture and for in vivo experiments. The cell cultures were maintained in DMEM supplemented with 10% heat-inactivated FCS, glutamine, antibiotics, sodium pyruvate and nonessential amino acids.
Two metastasis models were used: 1. The footpad model. 2. The i.v. model. The assay of tumor development in the footpad model and evaluation of lung metastases was done as previously described (Eisenbach, 1983). Briefly, eight mice in each experimental group were inoculated with 2×10^5 D122 cells in 0.05 ml PBS in the right hind footpad. Three days following tumor cells injection, mice were treated per os by disulfiram or saline 3 times per week. The tumors became palpable within 11-19 days. Local tumor growth was determined by measuring the footpad diameter with a calipers. At 26-40 days following inoculation, when local tumor reached a diameter of 6-7 mm, mice were anesthetized with a single dose of 75 mg/kg ketamine+3 mg/kg xylazine (i.p.) and the tumor-bearing leg was removed by amputation above the knee joint. To measure progress of metatases the mice were killed 24 days following amputation by injecting 20 mg/mouse xylazine i.p. and lungs were weighed.
Twenty-four days following the removal of the tumor-bearing leg, lungs were weighed.

The subject of data set [4] is kidney, liver, stomach, lungs and spleen. Nature of the data set: Pathological and histological examination of tissues of treated animals. It counts as in vivo, mice. The procedure:
C6 rat glioma cells (10^6) were injected subcutaneously into the back of the neck of CD1 nude male mice. After 3 days, 1 ml of aqueous solutions with or without 0.1-0.5 mM disulfiram (25-120 μg) was introduced per os to the mice using a feeding needle. Mice were orally fed three times per week. Tumors were removed 30 days following C6 cells injection, weighed, fixed in buffered formalin and histological sections were prepared. Each experimental group included 8 animals, and experiments were repeated twice.
Since disulfiram inhibits angiogenesis both in vivo in mice and in vitro in C6 glioma cells, it can be assumed that tumor growth inhibition observed for disulfiram is the result of its dual action, one on the neovascularization of the tumor and one on the C6 glioma cells. […] Blood vessels examined in these tissues were also not affected.

Turning to `CCN(CC)C(=S)SSC(=S)N(CC)CC` [disulfiram, Bis(diethylthiocarbamoyl) disulfide], the “maximal inhibitory concentration relative to endothelial cells, fold higher” value in data set [1] (C6 glioma vs endothelial cells (0.2-0.5 μM)) came to 10 fold. Also, the “persistence of inhibitory effect after short exposure” value in data set [1] (C6 glioma, 24 hours following short exposure) was “inhibitory effect seemed to be maintained”. In addition, the IC (maximal) in data set [1] (C6 glioma cells, read-out: concentration of maximal inhibitory activity (DNA synthesis)) was in the range of 2 to 3 µM. The IC (maximal) in data set [1] (C6 glioma, 1 to 4 hours of exposure, washed, read-out: concentration inducing maximal inhibitory effect on DNA synthesis, short exposure) amounted to 5 µM. For the same compound, in data set [2], the “apoptosis by FACS analysis of DNA content” value is “induced in a dose-dependent manner a sub-diploid apoptotic population; also recorded: appearance of a sub-diploid apoptotic population of cells” and the “dose dependence of abundance of apoptotic cells (FACS)” value is “dose-dependent”. Further, the “metastasis on the lungs compared with water-fed control (in words)” value in data set [3] (30 μg, 3 times a week, 24 days, n=6, p=0.005) is “significantly smaller”. The “lowering of the metastatic load in the lungs” value in data set [3] (30 μg/mouse, 24 days following removal of tumor-bearing leg) is listed as approximately 10 fold. Further, in data set [3] (120 μg/mouse (not shown)), the “decrease in the metastatic load in the lungs (in words)” value is on record as “only slight decrease”. In data set [3] (by 24th day following leg removal, control 50% died), the “deaths of disulfiram-treated mice” value is listed as “no disulfiram-treated mice died”. In addition, in data set [3] (disulfiram-treated group), the “mice with no metastases at all” value was “two out of six”. Moreover, in data set [4], the “effect on blood vessels in tissues” value is given as “not affected” and the “pathological effect on tissues” value is “no effect on these tissues”.
